In brackets after ≈: the same amount, converted by molar mass. Activity calls are given as the source filed them. The rule behind the calls is not given here.
How the values were obtained:
Candida albicans = test: Antifungal activity against Candida albicans; assay type: functional
Alternaria alternata = test: Antifungal activity against Alternaria alternata assessed as fungal inhibition rate at 100 ug/ml relative to control; assay type: functional
Alternaria solani = test: Antifungal activity against Alternaria solani assessed as fungal inhibition rate at 100 ug/ml relative to control; assay type: functional
Sclerotinia sclerotiorum = test: Fungicidal activity against Sclerotinia sclerotiorum assessed as fungal inhibitory rate at 16 ug/ml relative to control; assay type: functional
Colletotrichum lagenaria = test: Fungicidal activity against Colletotrichum lagenarium assessed as fungal inhibitory rate at 16 ug/ml relative to control; assay type: functional
Botrytis cinerea [1] = test: Fungicidal activity against Botrytis cinerea assessed as fungal inhibitory rate at 16 ug/ml relative to control; assay type: functional
Penicillium digitatum = test: Fungicidal activity against Penicillium digitatum assessed as fungal inhibitory rate at 16 ug/ml relative to control; assay type: functional
Fusarium oxysporum = test: Fungicidal activity against Fusarium oxysporum assessed as fungal inhibitory rate at 16 ug/ml relative to control; assay type: functional
Botrytis cinerea [2] = test: Induction of morphological changes in Botrytis cinerea assessed as irregular mycelia at 0.5 ug/ml incubated for 6 days by SEM analysis; assay type: functional, organism-based; conditions: dose 0.5 µg/ml, time 6.0 day
Botrytis cinerea [3] = test: Induction of morphological changes in Botrytis cinerea assessed as uneven mycelia at 0.5 ug/ml incubated for 6 days by SEM analysis; assay type: functional, organism-based; conditions: dose 0.5 µg/ml, time 6.0 day
Botrytis cinerea [4] = test: Induction of morphological changes in Botrytis cinerea assessed as tangled mycelia at 0.5 ug/ml incubated for 6 days by SEM analysis; assay type: functional, organism-based; conditions: dose 0.5 µg/ml, time 6.0 day
Botrytis cinerea [5] = test: Induction of morphological changes in Botrytis cinerea assessed as crinkly mycelia at 0.5 ug/ml incubated for 6 days by SEM analysis; assay type: functional, organism-based; conditions: dose 0.5 µg/ml, time 6.0 day
Botrytis cinerea [6] = test: Induction of morphological changes in Botrytis cinerea assessed as thin cell wall at 0.5 ug/ml incubated for 6 days by TEM analysis; assay type: functional, organism-based; conditions: dose 0.5 µg/ml, time 6.0 day
Botrytis cinerea [7] = test: Induction of morphological changes in Botrytis cinerea assessed as thin cell membrane at 0.5 ug/ml incubated for 6 days by TEM analysis; assay type: functional, organism-based; conditions: dose 0.5 µg/ml, time 6.0 day
Botrytis cinerea [8] = test: Induction of morphological changes in Botrytis cinerea assessed as cracked cell structure at 0.5 ug/ml incubated for 6 days by TEM analysis; assay type: functional, organism-based; conditions: dose 0.5 µg/ml, time 6.0 day
[9] = Inhibition of Botrytis cinerea CYP51 by ELISA
Botrytis cinerea [10] = test: Inhibition of Botrytis cinerea CYP51 by fluorescent quenching analysis; conditions: dose <= 16.0 µg/ml
Aspergillus niger = test: Antifungal activity against Aspergillus niger; assay type: functional
Botrytis cinerea [11] = test: Fungicidal activity against Botrytis cinerea assessed as fungal growth reduction; assay type: functional, organism-based
Aspergillus flavus = test: Antifungal activity against Aspergillus flavus; assay type: functional

IC50 [9] | SMILES | inhibition at 16 µg/mL (Sclerotinia sclerotiorum) | inhibition at 16 µg/mL (Colletotrichum lagenaria) | inhibition at 16 µg/mL (Botrytis cinerea [1]) | inhibition at 16 µg/mL (Penicillium digitatum) | inhibition at 16 µg/mL (Fusarium oxysporum) | EC50 (Botrytis cinerea [11]) | also measured
– | COc1ccc(NC(=O)c2cc3c(CO)cnc(C)c3o/c2=N\c2ccc(Cl)c(C)c2)cc1 | – | – | – | – | – | – | MIC (Candida albicans): 12.5 µg/mL (≈ 26.9 µM)
– | CCCC(Br)C(=O)Oc1ccc2c(c1)oc(=O)c1c(C)c(C(=O)OCC)c(C)nc12 (stereo not given) | – | – | – | – | – | – | inhibition at 100 µg/mL (Alternaria alternata): 44.6%; inhibition at 100 µg/mL (Alternaria solani): 40.7%
– | CCOC(=O)c1c(C)nc2c(c1C)c(=O)oc1c(OC(=O)C(Br)CC)cccc12 (stereo not given) | – | – | – | – | – | – | inhibition at 100 µg/mL (Alternaria alternata): 62.1%; inhibition at 100 µg/mL (Alternaria solani): 54.6%
0.377 µg/mL (≈ 0.841 µM) | COC(=O)C1=C(N)OC2=C(CN(C(=O)c3ccco3)C/C2=C\c2ccco2)C1c1ccco1 (stereo not given) | 85% | 86.8% | 100% | 78.4% | 87.1% | – | Activity (Botrytis cinerea [2]): Active; Activity (Botrytis cinerea [3]): Active; Activity (Botrytis cinerea [4]): Active; Activity (Botrytis cinerea [5]): Active; Activity (Botrytis cinerea [6]): Active; Activity (Botrytis cinerea [7]): Active; Activity (Botrytis cinerea [8]): Active; inhibition (Botrytis cinerea [10]): Dose-Dependent Effect
– | Cc1cc(C)c2c(=O)oc3cc(OC(=O)C(C)Br)ccc3c2n1 (stereo not given) | – | – | – | – | – | – | inhibition at 100 µg/mL (Alternaria alternata): 41.6%; inhibition at 100 µg/mL (Alternaria solani): 52.4%
– | COc1ccc(C2c3ccc4ncccc4c3Oc3nc[nH]c(=S)c32)cc1 (stereo not given) | – | – | – | – | – | – | MIC (Aspergillus niger): 125 µg/mL (≈ 335 µM)
– | CC1(C)CC(=O)C2=C(C1)OC(N)=C(C#N)C2c1ccco1 (stereo not given) | – | – | – | – | – | – | MIC (Candida albicans): 12.5 µg/mL (≈ 44 µM); MIC (Aspergillus niger): 12.5 µg/mL (≈ 44 µM)
– | CC1(C)CC(=O)C2=C(C1)OC(N)=C(C#N)C2c1ccc(F)cc1 (stereo not given) | – | – | – | – | – | – | MIC (Aspergillus flavus): 12.5 µg/mL (≈ 40 µM); MIC (Aspergillus niger): 12.5 µg/mL (≈ 40 µM)
0.748 µg/mL (≈ 1.2 µM) | COC(=O)C1=C(N)OC2=C(CN(C(=O)c3cccs3)C/C2=C\c2ccc(Br)o2)C1c1ccc(Br)o1 (stereo not given) | 80% | 78.3% | 100% | 73.1% | 80.9% | 0.61 µg/mL (≈ 0.98 µM) | –
1.288 µg/mL (≈ 1.97 µM) | COC(=O)C1=C(N)OC2=C(CN(C(=O)c3cccs3)C/C2=C\c2ccc(Br)s2)C1c1ccc(Br)s1 (stereo not given) | 68.5% | 66.2% | 100% | 61% | 62.9% | 1.04 µg/mL (≈ 1.59 µM) | –
0.907 µg/mL (≈ 1.6 µM) | COC(=O)C1=C(N)OC2=C(CN(C(=O)c3cccs3)C/C2=C\c2ccc(Cl)s2)C1c1ccc(Cl)s1 (stereo not given) | 74.1% | 72.2% | 100% | 67.5% | 72.8% | 0.824 µg/mL (≈ 1.46 µM) | –
– | COc1ccc(C2c3ccc4ccccc4c3Oc3[nH]c(=S)[nH]c(=S)c32)cc1 (stereo not given) | – | – | – | – | – | – | MIC (Aspergillus niger): 125 µg/mL (≈ 309 µM)
0.611 µg/mL (≈ 1.01 µM) | COC(=O)C1=C(N)OC2=C(CN(C(=O)c3ccco3)C/C2=C\c2ccc(Br)o2)C1c1ccc(Br)o1 (stereo not given) | 82.7% | 84.9% | 100% | 76% | 83.5% | 0.53 µg/mL (≈ 0.874 µM) | Activity (Botrytis cinerea [2]): Active; Activity (Botrytis cinerea [3]): Active; Activity (Botrytis cinerea [4]): Active; Activity (Botrytis cinerea [5]): Active; Activity (Botrytis cinerea [6]): Active; Activity (Botrytis cinerea [7]): Active; Activity (Botrytis cinerea [8]): Active; inhibition (Botrytis cinerea [10]): Dose-Dependent Effect
– | COC(=O)C1=C(C)OC(N)=C(C#N)C1c1ccc(F)cc1 (stereo not given) | – | – | – | – | – | – | MIC (Candida albicans): 12.5 µg/mL (≈ 43.4 µM); MIC (Aspergillus flavus): 12.5 µg/mL (≈ 43.4 µM)

SMILES | IC50 [9] | inhibition at 16 µg/mL (Sclerotinia sclerotiorum) | inhibition at 16 µg/mL (Colletotrichum lagenaria) | inhibition at 16 µg/mL (Botrytis cinerea [1]) | inhibition at 16 µg/mL (Penicillium digitatum) | inhibition at 16 µg/mL (Fusarium oxysporum) | EC50 (Botrytis cinerea [11]) | also measured
Fc1ccc([C@@]2(Cn3cncn3)O[C@@H]2c2ccccc2Cl)cc1 | 0.802 µg/mL (≈ 2.43 µM) | 100% | 94.3% | 100% | 78.6% | 87.3% | 0.67 µg/mL (≈ 2.03 µM) | Activity (Botrytis cinerea [2]): Active; Activity (Botrytis cinerea [3]): Active; Activity (Botrytis cinerea [4]): Active; Activity (Botrytis cinerea [5]): Active; Activity (Botrytis cinerea [6]): Active; Activity (Botrytis cinerea [7]): Active; Activity (Botrytis cinerea [8]): Active; inhibition (Botrytis cinerea [10]): Dose-Dependent Effect

From ChEMBL document CHEMBL5506031, “Design, Synthesis, Bioactive Evaluation, and Molecular Dynamics Simulation of Novel 4H-Pyrano[3,2-c]pyridine Analogues as Potential Sterol 14α-Demethylase (CYP51) Inhibitors” (J Med Chem, 2024)
